Data reported in ChEMBL document CHEMBL1201862, “PubChem BioAssay data set” (2004).
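Results reflect a 48-hour exposure of cells in 96-well plates to compound at five concentrations. The concentration for 50% growth inhibition is given as GI50.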 The source made the active and inactive calls. Cut-off read from the data, not from the text of the source: active = GI50 up to about 1.1 µM and inactive = higher.

Columns and labels:
Test in all cases: NCI-60 cell line screen, 48 h
[1] = test system: PC-3
[2] = test system: A549
[3] = test system: SF-539
[4] = test system: NCI/ADR-RES
[5] = test system: NCI-H522
[6] = test system: M14
[7] = test system: EKVX
[8] = test system: SN12C
[9] = test system: HCT-15
[10] = test system: DU-145
[11] = test system: SW-620
[12] = test system: NCI-H460
[13] = test system: SK-MEL-2
[14] = test system: SF-295
[15] = test system: 786-0
[16] = test system: SR
[17] = test system: HT-29
[18] = test system: UACC-62
[19] = test system: HOP-62
[20] = test system: T47D

Row | SMILES | GI50 [1] | GI50 [2] | GI50 [3] | GI50 [4] | GI50 [5] | GI50 [6] | GI50 [7] | GI50 [8] | GI50 [9] [µM] | GI50 [10] | GI50 [11] | GI50 [12] | GI50 [13] | GI50 [14] | GI50 [15] | GI50 [16] | GI50 [17] | GI50 [18] | GI50 [19] | GI50 [20]
1 | c1ccc2[nH]c3nc4ccccc4c-3cc2c1 | 0.232 µM (active) | 0.245 µM (active) | 0.367 µM (active) | 1.28 µM (inactive) | 0.0824 µM (active) | 0.536 µM (active) | 0.395 µM (active) | 0.63 µM (active) | 0.229 | 1.26 µM (inactive) | 0.156 µM (active) | 0.128 µM (active) | 0.445 µM (active) | 0.5 µM (active) | 0.0199 µM (active) | 0.0441 µM (active) | < 0.0303 µM (active) | 0.632 µM (active) |  | 
2 | O=C1NC2OC(CO)C(O)C(O)C2O1 (centres undefined) |  | > 100 µM (inactive) | > 100 µM (inactive) |  | > 100 µM (inactive) | > 100 µM (inactive) | > 100 µM (inactive) | > 100 µM (inactive) | > 100 |  | > 100 µM (inactive) | > 100 µM (inactive) | > 100 µM (inactive) | > 100 µM (inactive) | > 100 µM (inactive) | > 100 µM (inactive) | > 100 µM (inactive) | > 100 µM (inactive) | > 100 µM (inactive) | 
3 | COC(=O)[C@@H](O)[C@]1(C(=O)OC)C2O[C@@H](OC)[C@@H]1CCCCCC[C@H]2O | > 100 µM (inactive) | > 100 µM (inactive) | > 100 µM (inactive) | > 100 µM (inactive) | > 100 µM (inactive) | > 100 µM (inactive) | > 100 µM (inactive) | > 100 µM (inactive) | > 100 |  | > 100 µM (inactive) | > 100 µM (inactive) | 51.5 µM (inactive) | > 100 µM (inactive) | > 100 µM (inactive) | > 100 µM (inactive) | > 100 µM (inactive) | > 100 µM (inactive) | > 100 µM (inactive) | 
4 | COC1CC(OS(=O)(=O)c2ccc(C)cc2)C(OS(=O)(=O)c2ccc(C)cc2)C(COS(=O)(=O)c2ccc(C)cc2)O1 (centres undefined) |  | 5.9 µM (inactive) | 1.88 µM (inactive) |  | 3.8 µM (inactive) | 5.22 µM (inactive) | 11.2 µM (inactive) | 3.96 µM (inactive) | 5.35 |  | 15.6 µM (inactive) | 4.3 µM (inactive) | 6.85 µM (inactive) | 1.55 µM (inactive) | 1.6 µM (inactive) | 6.12 µM (inactive) | 3.31 µM (inactive) | 5.61 µM (inactive) | 2.18 µM (inactive) | 
5 | CC(C)(C)[Si](C)(C)OCC1OC(n2ccc(=O)[nH]c2=O)C(O[Si](C)(C)C(C)(C)C)[C@]12O[C@@H]2CO (some centres undefined) | 4.58 µM (inactive) | 10.9 µM (inactive) | 21.5 µM (inactive) | 17.4 µM (inactive) | 14.1 µM (inactive) | 14.4 µM (inactive) | 17 µM (inactive) | 15.7 µM (inactive) | 11.9 | 19.4 µM (inactive) | 20.2 µM (inactive) | 14 µM (inactive) | 14.7 µM (inactive) | 10.3 µM (inactive) | 18.2 µM (inactive) | 3.61 µM (inactive) | 10.6 µM (inactive) | 16.3 µM (inactive) | 16 µM (inactive) | 
6 | CC(C)C(=O)OCC1CCCN2CCCCC12 (centres undefined) | 79.4 µM (inactive) | 74 µM (inactive) | > 100 µM (inactive) | > 100 µM (inactive) |  | > 100 µM (inactive) | > 100 µM (inactive) | > 100 µM (inactive) | 53 | > 100 µM (inactive) | > 100 µM (inactive) | 38.7 µM (inactive) | > 100 µM (inactive) | > 100 µM (inactive) | 64.4 µM (inactive) |  | 30.5 µM (inactive) | 68.1 µM (inactive) | > 100 µM (inactive) | 
7 | CCSCN(C)c1nc(N(C)C)nc(N(C)C)n1 |  | 55.2 µM (inactive) | 36.1 µM (inactive) |  | 35 µM (inactive) | 39.8 µM (inactive) | > 100 µM (inactive) | 77.6 µM (inactive) | 42.5 |  | 35.9 µM (inactive) | 39.8 µM (inactive) | > 100 µM (inactive) | 92.3 µM (inactive) | 36.7 µM (inactive) | 30 µM (inactive) | 36.5 µM (inactive) | 40.4 µM (inactive) | 98.2 µM (inactive) | 
8 | Nc1nc(CC2(O)CCCCC2)cc(-c2ccccc2)n1 |  | 26.7 µM (inactive) | > 74 µM (inactive) |  | 27.2 µM (inactive) | 29.2 µM (inactive) | 35.6 µM (inactive) | 20.3 µM (inactive) | > 43.9 |  | 25.7 µM (inactive) | 24.3 µM (inactive) | 35.6 µM (inactive) | 38.5 µM (inactive) | 21 µM (inactive) | 16.5 µM (inactive) | 16.6 µM (inactive) | 23.4 µM (inactive) | > 49.7 µM (inactive) | 
9 | O=C(/N=C1\SCCN1C(=O)C(C(F)(F)F)C(F)(F)F)C(C(F)(F)F)C(F)(F)F | > 100 µM (inactive) | > 100 µM (inactive) | > 100 µM (inactive) | > 100 µM (inactive) | > 100 µM (inactive) | > 100 µM (inactive) | > 100 µM (inactive) |  | > 100 |  | > 100 µM (inactive) | > 100 µM (inactive) | > 100 µM (inactive) | > 100 µM (inactive) | > 100 µM (inactive) | > 100 µM (inactive) | > 100 µM (inactive) |  | > 100 µM (inactive) | 
10 | O=C(CCN1CCCCC1CO)Nc1ccc2c(c1)C(=O)c1ccc(NC(=O)CCN3CCCCC3CO)cc1C2=O (centres undefined) |  | 27.9 µM (inactive) | 3.6 µM (inactive) |  | 8.18 µM (inactive) | 10.4 µM (inactive) | 19.1 µM (inactive) | 6.68 µM (inactive) | 14.2 |  | 3.64 µM (inactive) | 6.58 µM (inactive) | 4.58 µM (inactive) | 23.8 µM (inactive) | 1.98 µM (inactive) | 10.7 µM (inactive) | 11.4 µM (inactive) | 8.95 µM (inactive) | 14.5 µM (inactive) | 
11 | Clc1ccccc1/C=c1\nc(-c2ccccc2)n2c1nc1ccccc12 | 4.66 µM (inactive) | > 100 µM (inactive) | 20 µM (inactive) | 40.9 µM (inactive) |  | > 100 µM (inactive) | 13.4 µM (inactive) | > 100 µM (inactive) | > 100 | > 100 µM (inactive) | > 100 µM (inactive) | > 100 µM (inactive) | 45.3 µM (inactive) | 10.7 µM (inactive) | 41.2 µM (inactive) |  | > 100 µM (inactive) | 30.8 µM (inactive) | 20.8 µM (inactive) | > 100 µM (inactive)
12 | COc1ccccc1/C=C/c1c(N)ncnc1Nc1cccc(Cl)c1 | 0.164 µM (active) | 14.6 µM (inactive) | 18.3 µM (inactive) |  | 10.8 µM (inactive) | 26.5 µM (inactive) | 16.7 µM (inactive) | 13.5 µM (inactive) | 15.9 | 36.6 µM (inactive) | 34 µM (inactive) | 20.7 µM (inactive) | 18.6 µM (inactive) | 26.2 µM (inactive) | 11.9 µM (inactive) | 0.132 µM (active) | 17.7 µM (inactive) | 16.6 µM (inactive) | 19.4 µM (inactive) | 40.4 µM (inactive)
13 | c1cc(C[S+]2CCCC2)oc1C[S+]1CCCC1 | > 100 µM (inactive) | > 100 µM (inactive) | > 100 µM (inactive) | > 100 µM (inactive) | > 100 µM (inactive) | > 100 µM (inactive) | > 100 µM (inactive) | > 100 µM (inactive) | > 100 | > 100 µM (inactive) | > 100 µM (inactive) | > 100 µM (inactive) |  | > 100 µM (inactive) | > 100 µM (inactive) |  | > 100 µM (inactive) | > 100 µM (inactive) | > 100 µM (inactive) | > 100 µM (inactive)
14 | CC(C)(C)C(=O)O[C@H]1C=C[C@@H](O)[C@@H]2[C@H]1[C@@H]1C=C[C@H]2C1 |  | 30 µM (inactive) | 26.5 µM (inactive) | 20.2 µM (inactive) | 17.4 µM (inactive) | 13.7 µM (inactive) | 6.01 µM (inactive) | 16.6 µM (inactive) | 20 | 47.6 µM (inactive) | 42.7 µM (inactive) | 53.8 µM (inactive) | 13 µM (inactive) | 44.5 µM (inactive) | 48.5 µM (inactive) | 18.9 µM (inactive) |  | 9.79 µM (inactive) |  | 24.8 µM (inactive)
15 | COc1cc2c(c3c1C=CCO3)C(=O)c1ccccc1C2=O |  | 38.5 µM (inactive) | 36.1 µM (inactive) |  | 29.7 µM (inactive) | 82 µM (inactive) | > 100 µM (inactive) | 43.9 µM (inactive) | 29.6 |  | 30.4 µM (inactive) | 39.8 µM (inactive) | > 100 µM (inactive) | > 100 µM (inactive) | 57.7 µM (inactive) | 28 µM (inactive) | 70.1 µM (inactive) | 47.4 µM (inactive) | 41.3 µM (inactive) | 
16 | CC(CC(C)(C)[N+](C)(C)C)[N+](C)(C)C (centres undefined) | > 100 µM (inactive) | > 100 µM (inactive) | > 100 µM (inactive) | > 100 µM (inactive) | > 100 µM (inactive) | > 100 µM (inactive) | > 100 µM (inactive) | > 100 µM (inactive) | > 100 | > 100 µM (inactive) | > 100 µM (inactive) | > 100 µM (inactive) |  | > 100 µM (inactive) | > 100 µM (inactive) | > 100 µM (inactive) | > 100 µM (inactive) | > 100 µM (inactive) | > 100 µM (inactive) | 
